The values below come from patent US20210277003A1, “OGA INHIBITOR COMPOUNDS” (Janssen Pharmaceutica NV, priority 2018, published 2021).

This assay concerns the target T1, recombinant human Meningioma Expressed Antigen 5 (MGEA5), also referred to as O-GlcNAcase (OGA) (Homo sapiens, UniProt O60502).
T1 construct: Full length OGA enzyme was purchased at OnGene (cat #TP322411); purchased OnGene (so in the source)
T1 sequence (O60502 1-916): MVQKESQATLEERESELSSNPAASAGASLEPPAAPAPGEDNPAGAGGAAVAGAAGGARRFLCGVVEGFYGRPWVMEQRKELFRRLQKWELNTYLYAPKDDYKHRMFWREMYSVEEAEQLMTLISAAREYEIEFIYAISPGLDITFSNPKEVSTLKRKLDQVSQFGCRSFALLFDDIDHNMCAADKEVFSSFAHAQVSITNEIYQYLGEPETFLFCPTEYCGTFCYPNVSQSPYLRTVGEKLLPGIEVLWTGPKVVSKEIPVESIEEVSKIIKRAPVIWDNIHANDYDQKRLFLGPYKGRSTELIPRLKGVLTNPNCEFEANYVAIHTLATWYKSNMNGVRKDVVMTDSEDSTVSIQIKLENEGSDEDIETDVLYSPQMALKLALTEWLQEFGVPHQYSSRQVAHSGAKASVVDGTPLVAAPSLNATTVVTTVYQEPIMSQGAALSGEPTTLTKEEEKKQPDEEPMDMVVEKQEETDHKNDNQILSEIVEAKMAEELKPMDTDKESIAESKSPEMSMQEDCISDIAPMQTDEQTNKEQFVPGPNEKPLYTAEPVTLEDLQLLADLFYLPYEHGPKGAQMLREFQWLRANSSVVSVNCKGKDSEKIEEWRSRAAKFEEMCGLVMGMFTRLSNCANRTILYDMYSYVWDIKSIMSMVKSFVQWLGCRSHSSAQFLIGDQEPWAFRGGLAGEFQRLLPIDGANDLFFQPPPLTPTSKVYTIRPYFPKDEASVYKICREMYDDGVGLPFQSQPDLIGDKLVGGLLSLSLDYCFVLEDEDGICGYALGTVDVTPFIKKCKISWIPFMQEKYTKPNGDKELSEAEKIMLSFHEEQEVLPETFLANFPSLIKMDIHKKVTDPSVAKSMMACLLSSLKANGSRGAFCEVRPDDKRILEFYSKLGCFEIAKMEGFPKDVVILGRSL
In words: OGA biochemical assay: inhibition of hydrolysis of fluorescein mono-ß-D-N-Acetyl-Glucosamine (FM-GlcNAc), fluorescence readout. As to conditions: FM-GlcNAc substrate; for Emax: read-out: Enzymatic Emax (%); for IC50: read-out: Enzymatic hOGA, pIC50 (converted). The source says: The assay is based on the inhibition of the hydrolysis of fluorescein mono-ß-D-N-Acetyl-Glucosamine (FM-GlcNAc) (Mariappa et al. 2015, Biochem J 470:255) by the recombinant human Meningioma Expressed Antigen 5 (MGEA5), also referred to as O-GlcNAcase (OGA). The hydrolysis FM-GlcNAc (Marker Gene technologies, cat #M1485) results in the formation of ß-D-N-glucosamineacetate and fluorescein. The fluorescence of the latter can be measured at excitation wavelength 485 nm and emission wavelength 538 nm. An increase in enzyme activity results in an increase in fluorescence signal. Full length OGA enzyme was purchased at OnGene (cat #TP322411). The enzyme was stored in 25 mM Tris.HCl, pH 7.3, 100 mM glycine, 10% glycerol at −20° C. Thiamet G and GlcNAcStatin were tested as reference compounds (Yuzwa et al. 2008 Nature Chemical Biology 4:483; Yuzwa et al. 2012 Nature Chemical Biology 8:393). The assay was performed in 200 mM Citrate/phosphate buffer supplemented with 0.005% Tween-20. 35.6 g Na2HPO4 2 H2O (Sigma, #C0759) were dissolved in 1 L water to obtain a 200 mM solution. 19.2 g citric acid (Merck, #1.06580) was dissolved in 1 L water to obtain a 100 mM solution. pH of the sodium phosphate solution was adjusted with the citric acid solution to 7.2. The buffer to stop the reaction consists of a 500 mM Carbonate buffer, pH 11.0. 734 mg FM-GlcNAc were dissolved in 5.48 mL DMSO to obtain a 250 mM solution and was stored at −20° C. OGA was used at a 2 nM concentration and FM-GlcNAc at a 100 uM final concentration. Dilutions were prepared in assay buffer. 50 nl of a compound dissolved in DMSO was dispensed on Black Proxiplate™ 384 Plus Assay plates (Perkin Elmer, #6008269) and 3 μl fl-OGA enzyme mix added subsequently. Plates were pre-incubated for 60 min at room temperature and then 2 μl FM-GlcNAc substrate mix added. […] Plates were briefly centrifuged for 1 min at 1000 rpm and incubate at room temperature for 6 h. To stop the reaction 5 μl STOP buffer were added and plates centrifuge again 1 min at 1000 rpm. Fluorescence was quantified in the Thermo Scientific Fluoroskan Ascent or the PerkinElmer EnVision with excitation wavelength 485 nm and emission wavelength 538 nm. For analysis a best-fit curve is fitted by a minimum sum of squares method. From this an IC50 value and Hill coefficient was obtained. High control (no inhibitor) and low control (saturating concentrations of standard inhibitor) were used to define the minimum and maximum values.

Regarding `Cc1ccc(-n2ccc3c(Nc4c(Cl)cccc4Cl)nccc32)nc1` [Compound 165], the Emax was found to be 101% and the IC50 was 38 nM.
As to `Cc1cnc(Cn2ccc3c(Nc4c(Cl)cc(F)cc4Cl)nccc32)o1` [Compound 143], the “Enzymatic hOGA; pIC50” value was 7.41 and the Emax turned out to be 100%.
Turning to `Clc1cccc(Cl)c1Nc1nccc2c1ccn2CCC1COC1` [Compound 98], the “Enzymatic hOGA; pIC50” value is recorded as 6.54 and the Emax amounted to 98%.
With `Cc1ccnc(C)c1Nc1nccc2c1ccn2CC1COC1` [Compound 4], the “Enzymatic hOGA; pIC50” value came to 6.03 and the Emax came to 93%.
Turning to `CCC(Cn1ccc2c(Nc3c(Cl)cc(F)cc3Cl)nccc21)OC` (stereo not drawn) [Compound 104], the “Enzymatic hOGA; pIC50” value is 6.14 and the Emax was found to be 96.9%.
Turning to `Cn1ccnc1Cn1ccc2c(Nc3c(Cl)cccc3Cl)nccc21` [Compound 168], the Emax is 98.1% and the IC50 is 562 nM.
For `Cc1ccnc(C)c1Nc1nccc2c1ccn2CC(F)(F)F` [Compound 79] the same measures were 101% and 138 nM.
In the case of `Cc1ccnc(C)c1Nc1nccc2c1ccn2CCN1CC(F)(F)C1` [Compound 103], the “Enzymatic hOGA; pIC50” value was 6.12 and the Emax came to 99.7%.
For `Fc1cc(Cl)c(Nc2nccc3c2ccn3-c2c[nH]cn2)c(Cl)c1` [Compound 190], the Emax came to 96.3% and the IC50 is 562 nM.
For `Cc1ccnc(C)c1Nc1nccc2c1ccn2CC1CC1(F)F` (stereo not drawn) [Compound 2], the Emax amounted to 99% and the IC50 was 91.2 nM.
Turning to `CCC(C)(O)Cn1ccc2c(Nc3c(Cl)cc(F)cc3Cl)nccc21` (stereo not drawn) [Compound 106], the “Enzymatic hOGA; pIC50” value is on record as 6.64 and the Emax came to 103%.
For the molecule `CCCC(C)n1ccc2c(Nc3c(C)cncc3C)nccc21` (stereo not drawn) [Compound 33], the Emax came out at 99% and the IC50 was 309 nM.
On to `Cc1ccnc(C)c1Nc1nccc2c1ccn2CCC1CCO1` (stereo not drawn) [Compound 21], for which the “Enzymatic hOGA; pIC50” value is listed as 6.61 and the Emax came out at 96%.
For the molecule `Cc1ncnc(C(C)C)c1Nc1nccc2c1ccn2CCC(F)(F)F` [Compound 192], the Emax worked out at 98.3% and the IC50 is 182 nM.
Regarding `CCC(C)(F)Cn1ccc2c(Nc3c(C)ccnc3C)nccc21` (stereo not drawn) [Compound 108], the “Enzymatic hOGA; pIC50” value amounted to 7.32 and the Emax worked out at 102%.
As for `Fc1cc(Cl)c(Nc2nccc3c2ccn3Cc2cnco2)c(Cl)c1` [Compound 142], the “Enzymatic hOGA; pIC50” value was 6.56 and the Emax came to 99.2%.
For the molecule `Cc1cncc(C)c1Nc1nccc2c1ccn2CC1COC1` [Compound 29], the Emax turned out to be 88% and the IC50 is 1620 nM.
In the case of `Fc1cnc(-n2ccc3c(Nc4c(Cl)cccc4Cl)nccc32)nc1` [Compound 164], the Emax worked out at 101% and the IC50 was 37.2 nM.
In the case of `CCCCn1ccc2c(Nc3c(C)cc(N(C)C(C)=O)cc3C)nccc21` [Compound 102], the Emax came to 99% and the IC50 is 229 nM.
Regarding `CCC(C)(F)Cn1ccc2c(Nc3c(Cl)cc(F)cc3Cl)nccc21` (stereo not drawn) [Compound 111], the “Enzymatic hOGA; pIC50” value came to 7.62 and the Emax was 102%.
In the case of `Cc1cncc(Cl)c1Nc1nccc2c1ccn2CC1COC1` [Compound 30], the maximal response (Emax) worked out at 93% and the IC50 was 1410 nM.
In the case of `Cc1ccnc(C)c1Nc1nccc2c1ccn2CCC1CC1(F)F` (stereo not drawn) [Compound 94], the “Enzymatic hOGA; pIC50” value was determined as 6.86 and the Emax was determined as 99%.
As to `Clc1cccc(Cl)c1Nc1nccc2c1ccn2Cc1ncc[nH]1` [Compound 191], the Emax was 98.8% and the IC50 is 229 nM.
On to `COCCn1ccc2c(Nc3c(Cl)cncc3Cl)nccc21` [Compound 28], for which the Emax was 83% and the IC50 was 2190 nM.
`CCCCn1ccc2c(Nc3c(C)cnnc3C)nccc21` [Compound 17]: the “Enzymatic hOGA; pIC50” value was found to be 6.94 and the Emax was 102%.
Turning to `Cc1ccnc(C)c1Nc1nccc2c1ccn2CC1(C)COC1` [Compound 22], the “Enzymatic hOGA; pIC50” value amounted to 6.54 and the Emax was determined as 99%.
For the molecule `N#CCCCn1ccc2c(Nc3c(Cl)cncc3Cl)nccc21` [Compound 36], the Emax turned out to be 100% and the IC50 was 275 nM.
With `CCn1ccc2c(Nc3c(C)cc(F)cc3C)nccc21` [Compound 37], the Emax was found to be 101% and the IC50 is 251 nM.
For `CN(C)S(=O)(=O)Cn1ccc2c(Nc3c(Cl)cncc3Cl)nccc21` [Compound 3] the same measures were 92% and 933 nM.
Turning to `CCCCn1ccc2c(Nc3c(C)cnc4c3OCCO4)nccc21` [Compound 20], the “Enzymatic hOGA; pIC50” value came to 7.4 and the Emax was determined as 102%.
`Fc1cc(Cl)c(Nc2nccc3c2ccn3-c2ncco2)c(Cl)c1` [Compound 182]: the Emax was determined as 97.8% and the IC50 was 309 nM.
Regarding `N#Cc1cnc(-n2ccc3c(Nc4c(Cl)cc(F)cc4Cl)nccc32)[nH]1` [Compound 181], the Emax came out at 92.7% and the IC50 was 794 nM.
In the case of `Cc1cncc(C(C)C)c1Nc1nccc2c1ccn2CC1COC1` [Compound 32], the Emax came to 98% and the IC50 was 234 nM.
As to `Fc1cc(Cl)c(Nc2nccc3c2ccn3Cc2cocn2)c(Cl)c1` [Compound 121], the “Enzymatic hOGA; pIC50” value came to 7.25 and the Emax was 103%.
For `Cn1cnc(Cn2ccc3c(Nc4c(Cl)cc(F)cc4Cl)nccc32)c1` [Compound 120], the “Enzymatic hOGA; pIC50” value worked out at 6.77 and the Emax amounted to 99.2%.
The like results for `CCC(O)Cn1ccc2c(Nc3c(C)ccnc3C)nccc21` (stereo not drawn) [Compound 93] were, in that order, 7.44 and 101%.
